Legend:
Format in all cases: in vivo
[1] = system: pulmonary fibrosis induced by administration of Bleomycin (BLM); assay: Histological examination (H&E and Masson-trichrome staining, Image J) of lung tissue in pulmonary fibrosis-induced animals; settings: BLM-treated C57BL/6 mice; oral, every day; SFN 50 μg/kg, Met 25 mg/kg, singly or together; lung tissue at 28 days; vs BLM alone
Description: In detail, C57BL/6 mice were administered with combination of BLM, SFN and metformin (Met) which is one of BG agents, and control groups and experimental groups were prepared: a control group that was orally administered with sterile physiological saline (SA) and orally administered with distilled water; an experimental group (BLM) that was administered with BLM and orally administered with distilled water; an experimental group (BLM+SFN) that was administered with BLM and orally administered with 50 μg/kg of SFN; an experimental group (BLM+MET) that was administered with BLM and orally administered with […] of Met; and an experimental group (BLM+SFN+MET) that was administered with BLM and orally administered with 50 μg/kg of SFN and 25 mg/kg of Met. […] The fixed lung tissues were stained by the H&E staining method and the Masson-trichrome staining method, and the stained lung tissues were evaluated by Image J assay to assess and compare lung damage and lung fibrosis (FIGS. 1a to 1c).

[2] = system: TGF-β1 (transforming growth factor β1); assay: Western blot analysis for TGF-β1 in lung tissue and serum samples; settings: BLM-treated C57BL/6 mice; oral, every day; SFN 50 μg/kg, Met 25 mg/kg, singly or together; lung tissue and serum at 28 days; vs BLM alone
Description: (§1) In detail, C57BL/6 mice were administered with combination of BLM, SFN and metformin (Met) which is one of BG agents, and control groups and experimental groups were prepared: a control group that was orally administered with sterile physiological saline (SA) and orally administered with distilled water; an experimental group (BLM) that was administered with BLM and orally administered with distilled water; an experimental group (BLM+SFN) that was administered with BLM and orally administered with 50 μg/kg of SFN; an experimental group (BLM+MET) that was administered with BLM and orally administered with 25 mg/hg of Met; and an experimental group (BLM+SFN+MET) that was administered with BLM and orally administered with 50 μg/kg of SFN and 25 mg/kg of Met. At this time, C57BL/6 mice were administered with 2.5 unit of BLM by intratracheal injection under anesthesia at the experiment initiation day and 14 days, and the mice were administered with SFN and Met every day during the experimental period from the next day after the first administration of BLM, and the mice of the control group and experimental groups were raised for 28 days after the experiment initiation day.
The animal models of the control group and the experimental groups that were prepared in Example 1 and raised for 28 days were sacrificed. The lung tissues and serum samples were obtained from these animal models. […]

[3] = system: fibronectin; assay: Western blot analysis for fibronectin in lung tissue and serum samples; settings: BLM-treated C57BL/6 mice; oral, every day; SFN 50 μg/kg, Met 25 mg/kg, singly or together; lung tissue and serum at 28 days; vs BLM alone
Description: as §1
(§2) The lung tissues and serum samples were obtained from these animal models. […]

[4] = system: AGE (advanced glycation end products); assay: Western blot analysis, Ponceau staining and ELISA for AGE in lung tissue and serum samples; settings: BLM-treated C57BL/6 mice; oral, every day; SFN 50 μg/kg, Met 25 mg/kg, singly or together; lung tissue and serum at 28 days; vs BLM alone
Description: as §1, §2

## CN(C)C(=N)N=C(N)N [Met, metformin]
[1]
  level of fibrous tissue (damaged fibrous regions, H&E and Masson-trichrome staining): slightly reduced
[2]
  TGF-β1 levels (Western blot): reduced TGF-β1 levels
[3]
  fibronectin levels (Western blot): reduced fibronectin levels
[4]
  AGE level (Western blot, ELISA): slightly reduced AGE level

## C[S+]([O-])CCCCN=C=S (centres unmarked) [SFN, sulforaphane]
[1]
  level of fibrous tissue (damaged fibrous regions, H&E and Masson-trichrome staining): statistically significant reduction
[2]
  TGF-β1 levels (Western blot): reduced TGF-β1 levels
[3]
  fibronectin levels (Western blot): reduced fibronectin levels
[4]
  AGE level (Western blot, ELISA): reduced

Reference: patent US9943497B2, “Pharmaceutical composition for preventing or treating pulmonary fibrosis” (GACHON UNIVERSITY OF INDUSTRY-ACADEMIC COOPERATION …, priority 2013, dated 2018)
